Read-outs that look alike come from different tables or passages of the source.
Molecular target: T1, CCXCKR2 receptor (Homo sapiens, UniProt P25106)
T1 construct: host or cells: MCF-7 (endogenous) and/or MDA-MB-435S transfected with hRDC1 in pcDNA3.1(+)
Experiment: Displacement of 125I-labeled SDF-1 from the CCXCKR2 receptor (radioligand binding, determination of IC50 values)
Procedure: The ability of the compounds to displace the labeled chemokine from the CCXCKR2 receptor sites at multiple concentrations was then determined with the screening process.
Compounds that were deemed effective modulators were able to displace at least 50% of the SDF-1 from the CCXCKR2 receptor at concentrations at or below 10 micromolar (μM) and more preferably at concentrations at or below 2 micromolar. At present, especially preferred compounds can displace at least 50% of the SDF-1 from the CCXCKR2 receptor at concentrations at or below 500 nM. Exemplary compounds that met these criteria are reproduced in Table B below. All compounds were prepared as described in the Examples above, or by related methods substituting readily available starting materials.
Reagents and Cells. ^125I-labeled SDF-1 was purchased from Perkin-Elmer Life Sciences, Inc. (Boston, Mass.). The MCF-7 (adenocarcinoma; mammary gland) cell line was obtained from the American Type Culture Collection (Manassas, Va.) or and was cultured in DMEM (Mediatech, Herndon, Va.) supplemented with 10% fetal bovine serum (FBS) (HyClone Logan, Utah) and bovine insulin (0.01 mg/mL) (Sigma, St. Louis, Mo.) at 37° C. in a humidified incubator at a 5% CO2/air mixture. CCXCKR2 transfected MDA-MB-435S were produced as described below. MDA-MB-435S human breast cancer line, was purchased from ATCC, and cultured in DMEM/10% FBS medium. The complete coding sequence of the gene encoding CCXCKR2 (a.k.a.CXCR7, hRDC1), was isolated from MCF-7 cells using μMACs mRNA isolation kit (Miltenyi Biotec, Auburn, Calif.). DNA contamination was removed by DNase digestion via RNeasy columns (Qiagen, Inc., Valencia, Calif.) and cDNA was generated using GeneAmp RNA PCR Core Kit (Applied Biosystems, Foster City, Calif.). PCR of cDNA samples was performed using Taq PCR Master Mix kit (Qiagen, Inc.) and hRDC1 primers harboring 5′ and 3′ Not I sites (hRDC1F 5′-[…]-3′ (SEQ ID NO:1), hRDC1R 5′-[…]-3′ (SEQ ID NO:2)) Not I digested PCR product was ligated into Not I digested pcDNA3.1(+)(Invitrogen, Carlsbad, Calif.) and screened for orientation and sequence confirmed. Plasmid DNA was then isolated from overnight bacterial cultures by Maxiprep (Qiagen, Inc.). Plasmid DNA (10 μg) was added to MDA-MB-435s cells and cells were electroporated (0.22 kV, 960 uF) via Gene Pulser (Biorad laboratories, Hercules, Calif.). 48 hr post-electroporation, cells were transferred to selection medium (1000 ug/ml G418).
Binding Analysis. Target compounds were tested to determine their ability to bind with CCXCKR2 sites on MCF-7 and/or MDA-MB-435S cells. Efficiency-maximized radioligand binding using filtration protocols as described in Dairaghi D J, et al., HHV8-encoded vMIP-I selectively engages chemokine receptor CCR5. Agonist and antagonist profiles of viral chemokines., J. Biol. Chem. 1999 Jul. 30; 274(31): 21569-74 and Gosling J, et al., Cutting edge: identification of a novel chemokine receptor that binds dendritic cell-and T cell-active chemokines including ELC, SLC, and TECK., J. Immunol. 2000 Mar. 15; 164(6):2851-6 was used.
In these assays, MCF-7 and/or MDA-MB-435S cells were interrogated with the target compounds and the ability of these compounds to displace ^125I radiolabeled SDF-1 was assessed using the protocol described in Dairaghi and Gosling. The target compounds were added to the plate to the indicated concentration and were then incubated with cells followed by the addition of radiolabeled chemokine (^125I SDF-1) for 3 hr at 4° C. in the following binding medium (25 mM HEPES, 140 mM NaCl, 1 mM CaCl2, 5 mM MgCl2 and 0.2% bovine serum albumin, adjusted to pH 7.1). All assays were then incubated for 3 hrs at 4° C. with gentle agitation. Following incubation in all binding assays, reactions were aspirated onto PEI-treated GF/B glass filters (Packard) using a cell harvester (Packard) and washed twice (25 mM HEPES, 500 mM NaCl, 1 mM CaCl2, 5 mM MgCl2, adjusted to pH 7.1). […]

[1] = MCF-7 and/or MDA-MB-435S cells expressing CCXCKR2, 125I SDF-1, 3 hr at 4° C., read-out: Activity (ability to displace 125I SDF-1 from CCXCKR2)

T1 sequence (P25106 whole entry): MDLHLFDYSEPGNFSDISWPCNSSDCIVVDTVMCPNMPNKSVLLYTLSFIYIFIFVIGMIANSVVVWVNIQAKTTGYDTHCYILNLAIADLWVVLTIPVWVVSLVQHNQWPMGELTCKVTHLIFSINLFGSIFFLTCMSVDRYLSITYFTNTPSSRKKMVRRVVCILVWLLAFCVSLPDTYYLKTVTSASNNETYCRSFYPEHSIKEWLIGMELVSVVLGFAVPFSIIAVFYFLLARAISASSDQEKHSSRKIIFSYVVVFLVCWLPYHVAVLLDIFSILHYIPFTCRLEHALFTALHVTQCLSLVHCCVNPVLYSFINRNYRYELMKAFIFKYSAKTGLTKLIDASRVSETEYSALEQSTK

Row | Structure (SMILES) | IC50 [1] | IC50
1 | COc1cc(C(=O)N(Cc2ccc3cccnc3n2)C[C@@H]2C[C@@H]3CCCC[C@@H]3N2)cc2c1OC(C)(C)O2 [Example 42, 7-Methoxy-2,2-dimethyl-benzo[1,3]dioxole-5-carboxylic acid [1,8]naphthyridin-2-ylmethyl-[(2S,3aS,7aS)-1-(octahydro-indol-2-yl)methyl]-amide] | < 500 nM | 
2 | COc1cc(C(=O)N(Cc2ccc3ccccc3n2)C[C@@H]2CCCN2C2CCC2)cc2c1OC(C)(C)O2 [Example 43, 7-Methoxy-2,2-dimethyl-benzo[1,3]dioxole-5-carboxylic acid ((S)-1-cyclobutyl-pyrrolidin-2-ylmethyl)-quinolin-2-ylmethyl-amide] | < 500 nM | 
3 | COc1cc(C(=O)N(Cc2ccc3ccccc3n2)C[C@@H]2CCCN2CC2CNC2)cc2c1OC(C)(C)O2 [Example 44, 7-Methoxy-2,2-dimethyl-benzo[1,3]dioxole-5-carboxylic acid ((S)-1-azetidin-3-ylmethyl-pyrrolidin-2-ylmethyl)-quinolin-2-ylmethyl-amide] | < 500 nM | 
4 | COCCOCCN1CCC[C@H]1CN(Cc1ccc2ccccc2n1)C(=O)c1cc(OC)c2c(c1)OC(C)(C)O2 [Example 47, 7-Methoxy-2,2-dimethyl-benzo[1,3]dioxole-5-carboxylic acid {(S)-1-[2-(2-methoxy-ethoxy)-ethyl]-pyrrolidin-2-ylmethyl}-quinolin-2-ylmethyl-amide] | < 500 nM | 
5 | COc1cc(C(=O)N(Cc2ccc3ccccc3n2)CC2CNC2)cc2c1OC(C)(C)O2 [Example 48, 7-Methoxy-2,2-dimethyl-benzo[1,3]dioxole-5-carboxylic acid azetidin-3-ylmethyl-quinolin-2-ylmethyl-amide] | < 500 nM | 
6 | COc1cc(C(=O)N(Cc2ccc3ccccc3n2)CC2CN(C)C2)cc2c1OC(C)(C)O2 [Example 49, 7-Methoxy-2,2-dimethyl-benzo[1,3]dioxole-5-carboxylic acid (1-methyl-azetidin-3-ylmethyl)-quinolin-2-ylmethyl-amide] | < 500 nM | 
7 | COc1cc(C(=O)N(Cc2nc(-c3ccccc3)cs2)C[C@@H]2CCCN2C2CCC2)cc2c1OC(C)(C)O2 [Example 50, 7-Methoxy-2,2-dimethyl-benzo[1,3]dioxole-5-carboxylic acid ((S)-1-cyclobutyl-pyrrolidin-2-ylmethyl)-(4-phenyl-thiazol-2-ylmethyl)-amide] | < 500 nM | 
8 | COc1cc(C(=O)N(Cc2nc(-c3ccccc3)cs2)C[C@@H]2C[C@@H]3CCCC[C@@H]3N2)cc2c1OC(C)(C)O2 [Example 51, 7-Methoxy-2,2-dimethyl-benzo[1,3]dioxole-5-carboxylic acid (octahydro-indol-2-ylmethyl)-(4-phenyl-thiazol-2-ylmethyl)-amide] | < 500 nM | 
9 | COc1cc(C(=O)N(Cc2nc(-c3ccccc3)cs2)C[C@@H]2CCCN2CC2CNC2)cc2c1OC(C)(C)O2 [Example 52, 7-Methoxy-2,2-dimethyl-benzo[1,3]dioxole-5-carboxylic acid ((S)-1-azetidin-3-ylmethyl-pyrrolidin-2-ylmethyl)-(4-phenyl-thiazol-2-ylmethyl)-amide] | < 500 nM | 
10 | COc1cc(C(=O)N(Cc2csc(-c3ccccc3)n2)C[C@@H]2CCCN2)cc2c1OC(C)(C)O2 [Example 55, 7-Methoxy-2,2-dimethyl-benzo [1,3]dioxole-5-carboxylic acid (2-phenyl-thiazol-4-ylmethyl)-pyrrolidin-2-ylmethyl-amide] | < 500 nM | 
11 | COc1cc(C(=O)N(Cc2csc(-c3ccccc3)n2)C[C@@H]2CCCN2C)cc2c1OC(C)(C)O2 [Example 56, 7-Methoxy-2,2-dimethyl-benzo[1,3]dioxole-5-carboxylic acid ((S)-1-methyl-pyrrolidin-2-ylmethyl)-(2-phenyl-thiazol-4-ylmethyl)-amide] | < 500 nM | 
12 | COc1cc(C(=O)N(Cc2cc3ccccc3o2)C[C@@H]2C[C@@H]3CCCC[C@@H]3N2)cc2c1OC(C)(C)O2 [Example 57, 7-Methoxy-2,2-dimethyl-benzo[1,3]dioxole-5-carboxylic acid benzofuran-2-ylmethyl-[(2S,3aS,7aS)-1-(octahydro-indol-2-yl)methyl]-amide] | < 500 nM | 
13 | COc1cc(C(=O)N(Cc2cc3ccccc3o2)C[C@@H]2CCCN2C2CCC2)cc2c1OC(C)(C)O2 [Example 58, 7-Methoxy-2,2-dimethyl-benzo[1,3]dioxole-5-carboxylic acid benzofuran-2-ylmethyl-((S)-1-cyclobutyl-pyrrolidin-2-ylmethyl)-amide] | < 500 nM | 
14 | COc1cc(C(=O)N(Cc2ccc3ccccc3c2)C[C@@H]2CCCN2C2CCC2)cc2c1OC(C)(C)O2 [Example 59, 7-Methoxy-2,2-dimethyl-benzo[1,3]dioxole-5-carboxylic acid ((S)-1-cyclobutyl-pyrrolidin-2-ylmethyl)-naphthalen-2-ylmethyl-amide] | < 500 nM | 
15 | COc1cc(C(=O)N(Cc2cc3ccccc3s2)C[C@@H]2CCCN2C2CCC2)cc2c1OC(C)(C)O2 [Example 60, 7-Methoxy-2,2-dimethyl-benzo[1,3]dioxole-5-carboxylic acid benzo[b]thiophen-2-ylmethyl-((S)-1-cyclobutyl-pyrrolidin-2-ylmethyl)-amide] | < 500 nM | 
16 | COc1cc(C(=O)N(Cc2cc3ccccc3s2)C[C@@H]2C[C@@H]3CCCC[C@@H]3N2)cc2c1OC(C)(C)O2 [Example 61, 7-Methoxy-2,2-dimethyl-benzo[1,3]dioxole-5-carboxylic acid benzo[b]thiophen-2-ylmethyl-[(2S,3aS,7aS)-1-(octahydro-indol-2-yl)methyl]-amide] | < 500 nM | 
17 | COc1cc(C(=O)N(Cc2cc3ccccc3cn2)C[C@@H]2CCCN2C2CCC2)cc2c1OC(C)(C)O2 [Example 62, 7-Methoxy-2,2-dimethyl-benzo[1,3]dioxole-5-carboxylic acid ((S)-1-cyclobutyl-pyrrolidin-2-ylmethyl)-isoquinolin-3-ylmethyl-amide] | < 500 nM | 
18 | COc1cc(C(=O)N(Cc2cc3ccccc3cn2)C[C@@H]2CCCN2C[C@@H]2C[C@H]3CC[C@@H](C2)N3)cc2c1OC(C)(C)O2 [Example 63, 7-Methoxy-2,2-dimethyl-benzo[1,3]dioxole-5-carboxylic acid {(S)-1-[(1S,3S,5R)-1-(8-aza-bicyclo[3.2.1]oct-3-yl)methyl]-pyrrolidin-2-ylmethyl}-isoquinolin-3-ylmethyl-amide] |  | < 500 nM
19 | COc1cc(C(=O)N(Cc2cc3ccccc3cn2)C[C@@H]2C[C@@H]3CCCC[C@@H]3N2)cc2c1OC(C)(C)O2 [Example 64, 7-Methoxy-2,2-dimethyl-benzo[1,3]dioxole-5-carboxylic acid isoquinolin-3-ylmethyl-[(2S,3aS,7aS)-1-(octahydro-indol-2-yl)methyl]-amide] | < 500 nM | 
20 | COc1cc(C(=O)N(Cc2cc3ccccc3c[n+]2[O-])C[C@@H]2C[C@@H]3CCCC[C@@H]3N2)cc2c1OC(C)(C)O2 [Example 65, 7-Methoxy-2,2-dimethyl-benzo[1,3]dioxole-5-carboxylic acid [(2S,3aS,7aS)-1-(octahydro-indol-2-yl)methyl]-(2-oxy-isoquinolin-3-ylmethyl)-amide] | < 2000 nM | 

From patent US7417062B2, “Substituted arylamides” (ChemoCentryx, Inc., priority 2004, dated 2008)
